Measurements: PubChem BioAssay (NCI)
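Values below derive from 48-hour exposures of cells grown in 96-well plates, with endpoints linearly interpolated between the two concentrations bracketing the appropriate inhibition level. Abbreviation: GI50, concentration required for 50% inhibition of growth. TGI: total growth inhibition.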 *1 amine or outer side, *2 acyl side, *3 side chain or, on linkers, in order; H or OH if unused. Where a SMILES comes first, the peptide text is derived from it. [ ]: non-standard residue; d: D form. ξ: configuration not given here. X21 = CC[C@@H](C)C(N[*:1])C(=O)[*:2]; ξR = N=C(N)NCCCC(N)C(=O)O; ξI = CCC(C)C(N)C(=O)O; ξL = CC(C)CC(N)C(=O)O; ξK = NCCCCC(N)C(=O)O; ξV = CC(C)C(N)C(=O)O; ξA = CC(N)C(=O)O

Tested on: MDA-MB-468 breast
Experiment: inhibition of tumour cell growth, NCI panel, 48 h

## CNCCCNCCCN1C(=O)c2ccc3c4c(ccc(c24)C1=O)C(=O)N(CCCNCc1ccccc1OC)C3=O
  GI50: 1 µM
  TGI: 2.77 µM

## Nc1ccccc1NC(=O)c1ccc(NC(=O)C/C=C/c2cccnc2)cn1
  GI50: 0.982 µM
  TGI: 13.3 µM

## CCOC(=O)c1cc(C(=O)c2cc(OC)c(OC)c(OC)c2)n2ccccc12
  GI50: 0.0939 µM
  TGI: 89.6 µM

## CN(C)CCCn1c2nc(=O)[nH]c(=O)c-2nc2cc(Cl)c(Cl)cc21
  GI50: 0.772 µM
  TGI: 2.13 µM

## CCC(C)C1NC(=O)C(CC(C)C)NC(=O)C(C)NC(=O)C(C(C)C)NC(=O)C(CCCCN)NC(=O)C(CC(C)C)NC(=O)C(C(C)C)NC(=O)[C@H](C)NC(=O)C(C(C)CC)NC(=O)C(CCCN=C(N)N)NC(=O)C(CCCCN)NC(=O)C(CCCN=C(N)N)NC(=O)C(CCCCN)NC(=O)C([C@H](C)CC)NC(=O)C(CCCCN)NC1=O (stereo not given in full) (cyclo(A[ξV][ξL][ξK][ξV][ξA][ξL][ξI][ξK][X21][ξK][ξR][ξK][ξR][ξI]))
  GI50: 0.361 µM
  TGI: 1.42 µM
